Source: patent US6815419B1, “Antiulcer agent” (Morinaga Milk Industry Co., Ltd., priority 1999, dated 2004)

Tests used:
CD (SD) rats = test: Acute toxicity of single oral administration in rats; assay type: in vivo; conditions: for Number of deaths/Total number, Female: female rats; for Number of deaths/Total number, Male: male rats
Procedure: Male and Female CD (SD) rats, 6 weeks old, purchased from Japan SLC CO., Ltd.) were respectively and randomly classified into three groups (each consisting of five rats) to be used for this experiment.
Commercially available α-lactalbumin (manufactured by Sigma Co., Ltd.) was dissolved in water for injection (manufactured by Otsuka Pharmaceutical Co., Ltd.) to each of a concentration of 100 mg/ml and 200 mg/ml, which were respectively and orally administered in an amount of 1 ml per 100 g of body weight (at each dose of 1000 mg and 2000 mg per 1 kg of rat body weight) to each rat of each group by single oral instillation by means of a metal probe with a rounded tip, in order to examine the acute toxicity. As a blank test, only water for injection (manufactured by Otsuka Pharmaceutical Co., Ltd.) was administered in the same way to each rat of both groups of males and females.

stress-induced ulcers = test: Test Method 2: stress-induced ulcers in rats (restraint and water immersion, Takagi and Okabe); assay type: in vivo, Wistar rats; conditions: test group 3; sum of scores of ten rats; oral 10 mg/kg, 1 mg/ml; 7 hours restraint in water at 23° C.; blank 50
Procedure: (§1) Male Wistar rats weighing 230 to 270 g, 11 weeks old, (purchased from Japan SLC CO., Ltd.) were randomly classified into six groups (each consisting of ten rats).
(§2) As test agents (antiulcer agents including α-lactalbumin of the present invention as an active ingredient), commercially available α-lactalbumin (manufactured by Sigma Co., Ltd.) was dissolved in distilled water to a concentration of 1 mg/ml to be used. As a test agent for a blank test, distilled water was used.
This experiment was carried out in a manner identical to Method 1 described above, except that ulcers were induced according to the method described by Takagi and Okabe (Japanese Journal of Pharmacology, volume 18, pages 9 to 18, 1968). That is, rats fasted for 24 hours were orally administered with each test agent including at a dose of 10 mg/kg of an active ingredient in body weight (test group number 3). The test agent for a blank test was orally administered to rats in an amount of 10 ml/kg body weight (test group number 4). After 30 minutes, each rat was held in a stainless steel restrictive cage, and was left in a water tank at 23° C., standing and submerging to the depth of the bottom of the breast xiphoid process of the rat.
After 7 hours, each rat was pulled up from the water tank, and the degree of ulcers was measured in a manner identical to Method 1 described above.

alcohol-induced ulcers = test: Test Method 1: alcohol-induced ulcers in rats, stomach examined after 7 hours; assay type: in vivo, Wistar rats; conditions: test group 1; sum of scores of ten rats; oral 10 mg/kg, 1 mg/ml; 7 hours after HCl/ethanol; blank 50
Procedure: as §1, §2
This experiment was carried out according to the method disclosed by Robert et al. (Gastroenterology, volume 77, pages 433 to 443, 1979) in a manner similar to Example 1. That is, rats fasted for 24 hours were orally administered with each test agent at a dose of 10 mg/kg of an active ingredient in body weight (test group number 1). The test agent for a blank test was orally administered to rats in an amount of 10 ml/kg in body weight (test group number 2). […]
After 7 hours, the rats were killed by ether inhalation, the stomach of each rat was taken out to the body surface, the pyloric part of the stomach was ligated, and then the stomach was removed. […] Then, the curvatura ventriculi major of the stomach fixed by formalin was cut to open, and the degree of ulcers was measured in a manner identical to Example 1.

[1] = system: hydrochloric acid and ethanol induced lesions on the mucous membrane of the stomach; test: Hydrochloric acid and ethanol induced ulcer in rats (method of Robert et al.), stomach examined after 1 hour; assay type: in vivo, Wistar rats; conditions: for Cumulative degree of lesions on mucous membrane: blank 60
Procedure: Male Wistar rats weighing 230 to 270 g, 11 weeks old, (purchased from Japan SLC CO., Ltd.) were randomly classified into five groups (each consisting of ten rats).
The experiment was carried out according to the method disclosed by Robert et al. (Gastroenterology, volume 77, pages 433 to 443, 1979). That is, rats were fasted for 24 hours and were orally administered with each test agent at a dose of 10 mg/kg of an active ingredient in body weight. Test agent 1 for a blank test was orally administered to the rats in an amount of 10 ml/kg body weight. After 30 minutes, hydrochloric acid and ethanol solution [hydrochloric acid and ethanol solution (M=mol/dm^3) prepared by mixing 500 mM of hydrogen chloride (HCl) solution and 75% ethanol solution at a volume ratio of […])] was orally administered to the rats at a dose of 5 ml/kg body weight.
After 1 hour, the rats were killed by ether inhalation, the stomach of each rat was taken out to the body surface, the pyloric part of the stomach was ligated, and then the stomach was removed. Then, 10 ml of 2% formalin solution was injected into the stomach from the cardiac part thereof, and the stomach was subsequently immersed in the formalin solution for 10 minutes for fixation. Then, the curvatura ventriculi major of the stomach fixed by formalin was cut to open, and the degree of ulcers was measured by the following method.
That is, the total area of injured portions on the mucous membrane of each rat was measured, and then the degree of lesions on the mucous membrane of each rat (score) was classified into six grades as shown in Table 1 in accordance with the total area of the injured portion.
This experiment was carried out in a manner identical to Example 1, except that α-lactalbumin included in the test agents as an active ingredient was respectively orally administered at a dose of 0 mg/kg body weight (blank test), 1 mg/kg body weight, 10 mg/kg body weight, or 100 mg/kg body weight.
This experiment was carried out in a manner identical to Example 1, except that α-lactalbumin included as an active ingredient in each test agent was respectively orally administered at a dose of 10 mg/kg body weight. The dose for the blank test was 0 mg/kg body weight.

[2] = system: ulcers caused by indomethacin; test: Test Method 3: ulcers caused by a nonsteroidal anti-inflammatory drug (indomethacin) in rats; assay type: in vivo, Wistar rats; conditions: test group 5; sum of scores of ten rats; oral 10 mg/kg, 1 mg/ml; 7 hours after indomethacin 30 mg/kg oral; blank 50
Procedure: as §1, §2
This experiment was carried out in a manner identical to Method 1 described above, except that ulcers were induced in accordance with the method of Okabe, et al. (Japanese Journal of Pharmacology, volume 29, pages 670 to 673, […]). That is, rats fasted for 24 hours were orally administered with the each test agent at a dose of 10 mg/kg of an active ingredient in body weight (test group number 5). The test agent for a blank test was orally administered to each rat in an amount of 10 ml/kg body weight (test group number 6). After 30 minutes, indomethacin at a dose of 30 mg/kg body weight, which is a representative nonsteroidal anti-inflammatory drug, was orally administered.
After 7 hours, the degree of ulcers was measured in a manner identical to Method 1 described above.

## α-lactalbumin
CD (SD) rats; single oral dose 1000 mg/kg
  Number of deaths/Total number, Female: 0/5
  Number of deaths/Total number, Male: 0/5
CD (SD) rats; single oral dose 2000 mg/kg
  Number of deaths/Total number, Female: 0/5
  Number of deaths/Total number, Male: 0/5
CD (SD) rats; rats, single oral administration
  LD50: no less than 2000 mg/kg body weight
stress-induced ulcers
  Cumulative degree of lesions on mucous membrane: 12
alcohol-induced ulcers
  Cumulative degree of lesions on mucous membrane: 6
[1]; oral dose fixed at 10 mg/kg
  Concentration of test agent that shows antiulcer effects: no less than 0.5 mg/ml
  Concentration of test agent that shows significant antiulcer effects: no less than 1 mg/ml
[1]; rats, oral, significant antiulcer effects
  Effective dose for oral administration: no less than 10 mg per 1 kg of body weight
[1]; sum of scores (0-6, Table 1) of ten rats, oral 10 mg/kg active ingredient, 1 mg/ml, 30 min before HCl/ethanol
  Cumulative degree of lesions on mucous membrane: 7
[1]; sum of scores of ten rats, concentration 0.25 mg/ml, oral dose 10 mg/kg
  Cumulative degree of lesions on mucous membrane: 30
[1]; sum of scores of ten rats, concentration 0.5 mg/ml, oral dose 10 mg/kg
  Cumulative degree of lesions on mucous membrane: 13
[1]; sum of scores of ten rats, concentration 1 mg/ml, oral dose 10 mg/kg
  Cumulative degree of lesions on mucous membrane: 7
[1]; sum of scores of ten rats, concentration 5 mg/ml, oral dose 10 mg/kg
  Cumulative degree of lesions on mucous membrane: 5
[1]; sum of scores of ten rats, concentration 10 mg/ml, oral dose 10 mg/kg
  Cumulative degree of lesions on mucous membrane: 5
[1]; sum of scores of ten rats, oral dose 1 mg/kg, 1 mg/ml
  Cumulative degree of lesions on mucous membrane: 47
[1]; sum of scores of ten rats, oral dose 10 mg/kg, 1 mg/ml
  Cumulative degree of lesions on mucous membrane: 7
[1]; sum of scores of ten rats, oral dose 100 mg/kg, 1 mg/ml
  Cumulative degree of lesions on mucous membrane: 3
[2]
  Cumulative degree of lesions on mucous membrane: 23
